Results taken from patent US20180273571A1, “CONCISE SYNTHESIS OF UREA DERIVATIVES OF AMPHOTERICIN B” (THE BOARD OF TRUSTEES OF THE UNIVERSITY OF ILLINOIS, priority 2015, published 2018).
Values after ≈ are worked out from the molar mass of the structure shown. Where two headings read alike, the source gives them in different places.

Key:
Saccharomyces cerevisiae = assay: Broth microdilution assay (MIC) against Saccharomyces cerevisiae; type: cell-based; conditions: for MIC: broth microdilution, read-out: MIC S. cerevisiae
Description: (§1) With efficient access to this novel AmB chemotype, ureas AmBAU, AmBMU, and AmBCU were compared to AmB and a range of previously reported AmB derivatives in an in vitro antifungal and human cell toxicity screen. Yeast toxicity was measured with broth microdilution assays (MIC) against Saccharomyces cerevisiae. Human cell toxicity was studied by determining the amount of compound required to cause 90% hemolysis of human erythrocytes (EH90). […] Methyl esterification (AmBME) retains antifungal activity at 0.25 μM against S. cerevisiae, while decreasing hemolysis concentration to one third that seen with AmB. […] Hemolysis activity remained similar to AmBME and C41MeAmB. Bis-amino alkylated amide derivative AmBNR2 was previously shown to moderately improve the therapeutic index.
(§2) Each derivative proposed herein is tested for biological activity against both yeast and human cells to determine its therapeutic index. A broth microdilution experiment determines the MIC (minimum inhibitory concentration) of each derivative against S. cerevisiae and the clinically relevant C. albicans, thereby establishing the antifungal activity of each novel derivative. To test for toxicity against human cells, each compound is exposed to a hemolysis assay against red blood cells which determines the concentration required to cause 90% lysis of human red blood cells (EH90). Additionally, each compound is exposed to human primary renal tubule cells to determine the toxicity of each compound against kidney cells. These assays when compared against the known values of AmB against the same cell lines determine the improvement in therapeutic index of each compound.

[1] = test system: human erythrocytes (red blood cells); assay: Hemolysis assay of human erythrocytes (EH90); type: cell-based
Description: as §1, §2

[2] = Wilcock et al., J Am Chem Soc 135:8488 (2013); cited from earlier work
[3] = Wilcock et al., J Am Chem Soc 135:8488 (2013); cited from earlier work; remark: listed apart in the source
yeast = conditions: in vitro studies, previously reported; cited from earlier work
human cells = conditions: in vitro studies, previously reported; cited from earlier work
Candida albicans = assay: Broth microdilution MIC against C. albicans; type: cell-based
Description: Urea derivatives AmBAU, AmBMU, and AmBCU maintain potent antifungal activity ranging from 0.125 μM to 3 μM against S. cerevisiae. […] AmBCU required 324 μM to cause 90% hemolysis in red blood cells, more than 30× required by AmB. Encouraged by this initial therapeutic index screen the urea series was further tested against the clinically relevant fungal cell line Candida albicans. C. albicans is the most common human fungal infection. AmB inhibits yeast grown of C. albicans at 0.25 μM. Similar to the trend seen with S. cerevisiae, the potency of the urea derivatives increased with increasing amount of cationic character. AmBAU, AmBMU, and AmBCU require 0.25, 0.5, and 1 μM respectively (Table 2).
as §2, with “Additionally, each compound is exposed to human primary renal tubule cells to determine the toxicity of each compound against kidney cells. These assays when compared against the known values of AmB against the same cell lines determine the improvement in therapeutic index of each compound.” left out

[4] = Acute toxicity, single intravenous administration to healthy mice, lethality; type: in vivo; conditions: single intravenous 4 mg/kg
Description: FIG. 6 is a graph depicting lethality in healthy mice of single intravenous administration in the doses indicated of AmB, AmBMU, or AmBAU.
In a separate set of experiments, acute toxicity was evaluated by single intravenous administration of 1, 2, 4, 8, 16, 32, or 64 mg/kg AmB or its derivatives to healthy mice, followed by monitoring for lethality. […] AmBAU was drastically less toxic with >50% lethality not being reached until the 64 mg/kg dosage group.

CC(C)/C=C/[C@@H](CC1O[C@](O)(C[C@@H](O)C(C)C)C[C@H](O)[C@H]1C(=O)NCCN)OC1OC(C)C(O)C(N)C1O (stereo partly shown) [AmBAA]
MIC (Saccharomyces cerevisiae; Saccharomyces cerevisiae): 0.03 µM (≈ 0.0164 µg/mL) | EH90 red blood cells ([1]; human): 33.96 ± 8.85 µM

COC(=O)[C@H]1C(C[C@H](/C=C/C(C)C)OC2OC(C)C(O)C(N)C2O)O[C@](O)(C[C@@H](O)C(C)C)C[C@@H]1O (stereo partly shown) [AmBME]
MIC (Saccharomyces cerevisiae; Saccharomyces cerevisiae): 0.25 µM (≈ 0.13 µg/mL) | hemolysis concentration relative to that seen with AmB [1]: one third | EH90 red blood cells ([1]; human): 30.67 ± 5.38 µM

CC(C)/C=C/[C@@H](CC1O[C@](O)(C[C@@H](O)C(C)C)C[C@H](O)[C@H]1C(=O)NCCn1cncn1)OC1OC(C)C(O)C(N(CCCN)CCCN)C1O (stereo partly shown) [AmBNR2]
MIC (Saccharomyces cerevisiae; Saccharomyces cerevisiae): 0.25 µM (≈ 0.178 µg/mL)

CC(C)/C=C/[C@H](O)CC1O[C@](O)(C[C@@H](O)C(C)C)C[C@H](O)[C@H]1C(=O)O (stereo partly shown) [AmdeB]
MIC (Saccharomyces cerevisiae; Saccharomyces cerevisiae): > 500 µM | cell-killing activity in yeast assay (Saccharomyces cerevisiae; in words): completely abolishes cell-killing activity | cell-killing activity in human cell assay [1]: completely abolishes cell-killing activity | EH90 red blood cells ([1]; human): >500 µM

CC1C=CC=CC=CC=CC=CC=CC=CC(OC2CC(N)C(O)C(C)O2)CC2OC(O)(CC(O)CC(O)C(O)CCC(O)CC(O)CC(=O)OC(C)C(C)C1O)CC(O)C2C(=O)O (stereo not shown) [C2′deOAmB]
ergosterol-binding ability [2]: retains ergosterol-binding ability | binding to cholesterol [3]: shows no binding to cholesterol | toxicity to yeast (yeast): toxic to yeast | toxicity to human cells (human cells): not human cells

amphotericin B [AmB]
MIC (Saccharomyces cerevisiae): 0.5 µM | EH90 red blood cells ([1]; amount of compound required to cause 90% hemolysis of human erythrocytes): 10.37 ± 1.17 µM | EH90 red blood cells ([1]; amount of compound required to cause 90% hemolysis of human erythrocytes, listed as Amphotericin B): 10.4 µM | MIC C. albicans (Candida albicans): 0.25 µM | lethality [4]: died within seconds
